Data as given in PubChem BioAssay (NCI).
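Test compounds were applied to cells in 96-well plates for 48 hours at 5 doses. At the GI50, growth is halved. At the TGI there is no net growth.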

Legend:
Assay in all cases: growth of human tumour cells (NCI), 48 h
[1] = tested on: SW-620 colon
[2] = tested on: UACC-62 melanoma
[3] = tested on: CCRF-CEM leukemia
[4] = tested on: SK-OV-3 ovarian
[5] = tested on: HCT-15 colon
[6] = tested on: SNB-75 CNS
[7] = tested on: SK-MEL-5 melanoma
[8] = tested on: SF-539 CNS
[9] = tested on: OVCAR-8 ovarian
[10] = tested on: OVCAR-4 ovarian

| Compound | GI50 [1] | TGI [1] | GI50 [2] | TGI [2] | GI50 [3] | TGI [3] | GI50 [4] | TGI [4] | GI50 [5] | TGI [5] | GI50 [6] | TGI [6] | GI50 [7] | TGI [7] | GI50 [8] | TGI [8] | TGI [9] | TGI [10] | GI50 [9] | GI50 [10] |
| --- | --- | --- | --- | --- | --- | --- | --- | --- | --- | --- | --- | --- | --- | --- | --- | --- | --- | --- | --- | --- |
| COc1cc(C2CC(c3ccc(C)cc3)=NN2C(C)=O)ccc1Oc1ccnc2cc(Cl)ccc12 (centres undefined) | > 100 µM | > 100 µM | > 100 µM | > 100 µM | > 100 µM | > 100 µM | 32.4 µM | > 100 µM | > 100 µM | > 100 µM | 0.482 µM | 5.93 µM | > 100 µM | > 100 µM | 11.7 µM | > 100 µM | – | – | – | – |
| CC(C)CCC[C@@H](C)C1CCC2[C@@H]3CC=C4C[C@@H](OC(=O)CCC(=O)NCC[N+](C)(C)CCCS(=O)(=O)[O-])CC[C@]4(C)C3CC[C@@]21C (some centres undefined) | – | 33.8 µM | – | 50.3 µM | – | 42.6 µM | – | > 100 µM | – | 29.5 µM | – | 44.9 µM | – | – | – | 31.4 µM | 35 µM | 34.5 µM | – | – |
| COc1cc(C=C2C(=O)OC(C)(C)OC2=O)cc(OC)c1OC | – | > 100 µM | – | > 100 µM | – | > 100 µM | – | > 100 µM | – | > 100 µM | – | – | – | > 100 µM | – | > 100 µM | > 100 µM | > 100 µM | – | – |
| O=C(CC1Sc2ccccc2NC1=O)Nc1ccc([N+](=O)[O-])cc1[N+](=O)[O-] (centres undefined) | – | 32.4 µM | – | 28.8 µM | – | 39.6 µM | – | – | – | – | – | 38.7 µM | – | 33.4 µM | – | – | 31 µM | 52.6 µM | – | – |
| N#CC1(Cc2ccccc2Cl)c2ccccc2C=CN1C(=O)c1ccccc1 (centres undefined) | – | > 100 µM | – | > 100 µM | – | > 100 µM | – | > 100 µM | – | > 100 µM | – | > 100 µM | – | > 100 µM | – | > 100 µM | > 100 µM | – | – | – |
| COc1ccc(C2CC(c3cccc(Nc4ccnc5cc(Cl)ccc45)c3)=NN2c2ccccc2)cc1 (centres undefined) | 0.277 µM | 14.4 µM | 0.051 µM | 11.7 µM | 0.546 µM | 37.9 µM | 9.62 µM | 76.5 µM | 0.335 µM | 14.7 µM | 3.34 µM | 49.1 µM | 1.46 µM | 4.76 µM | 1.15 µM | 3.25 µM | 38.8 µM | – | 2.85 µM | – |
| O=C1CCc2cc([N+](=O)[O-])ccc2O1 | – | > 100 µM | – | > 100 µM | – | > 100 µM | – | – | – | > 100 µM | – | > 100 µM | – | > 100 µM | – | > 100 µM | > 100 µM | > 100 µM | – | – |
| COc1cc(OC)cc(-c2n[nH]nc2-c2ccc3c(c2)OCO3)c1 | 0.105 µM | > 100 µM | 3.09 µM | 30.8 µM | 0.282 µM | > 100 µM | 0.486 µM | 93.2 µM | 0.125 µM | > 100 µM | – | – | 0.168 µM | 11.9 µM | 0.181 µM | 0.546 µM | 31.3 µM | > 100 µM | 0.512 µM | 0.763 µM |
| Cc1cccc2c1NC(c1c(C)[nH]c3ccccc13)C2 (centres undefined) | – | > 100 µM | – | > 100 µM | – | > 100 µM | – | > 100 µM | – | > 100 µM | – | > 100 µM | – | > 100 µM | – | > 100 µM | > 100 µM | – | – | – |
